Assay [1] has as its target S. cerevisiae Pma1 (Saccharomyces cerevisiae, UniProt P05030). Nature of the assay: ATP hydrolysis assay, S. cerevisiae plasma membranes containing Pma1. It counts as biochemical. Details: containing the full-length cDNA of the S. cerevisiae plasma membrane H^+-ATPase isoform PMA1; made in house; host or cells: S. cerevisiae RS72 (PMA1 cDNA under PMA1 promoter); also wild-type S. cerevisiae ATCC 9763. As for the experimental part: Plasma membranes containing Pma1 were isolated from S. cerevisiae RS72 cells containing the full-length cDNA of the S. cerevisiae plasma membrane H^+-ATPase isoform PMA1 under the control of the PMA1 promoter, as described in reference.
A 100-ml overnight culture in YPD medium [10 g/liter yeast extract (BD, Sparks, MD), 20 g/liter Bacto peptone (BD), 20 g/liter D-(+)-glucose] was transferred to 1 liter YPD medium and grown at room temperature and 150 rpm for 18 h for wild-type S. cerevisiae (ATCC 9763) and 7 h for C. albicans. The cells were harvested and washed in Milli-Q H2O by centrifugation at 3,360 × g. The cells were glucose activated by the addition of 10% D-(+)-glucose for 10 min while shaking. The cells were then centrifuged at 3,360 × g for 3 min and frozen. Cells (60 to 80 g, wet weight) were then disrupted by bead beating (BioSpec, Bartlesville, OK) and processed as described in reference to prepare the plasma membranes. […] All batches were validated by ATPase hydrolysis activity, pH optimum, and orthovanadate sensitivity.
The protein activity levels were determined by measuring the amount of free phosphate produced from the ATP hydrolysis reaction. The assay was performed as described in reference. Each well contained ATPase enzyme, 2 μl of inhibitor (usually in the range of 333 to 0.01 μM) dissolved in dimethyl sulfoxide (DMSO) (Duchefa Biochemie, Haarlem, The Netherlands), and an assay buffer dependent on the enzyme for a final volume of 60 μl. Possible compound precipitation in the assay buffer was monitored using a Nephelostar plate reader measuring turbidity, and the information was taken into account in the IC50 determination. Pma1 assay buffer consisted of 20 mM 3-(N-morpholino)propanesulfonic acid (MOPS)–NaOH, pH 6.5 or 7.0, 8 mM MgSO4, 50 mM KNO3 (a vacuolar ATPase inhibitor), 25 mM sodium azide (a mitochondrial ATPase inhibitor), and 250 μM sodium molybdate (an acid phosphatase inhibitor). SERCA buffer consisted of 9 mM MOPS-NaOH, pH 7, 2.7 mM MgCl2, 90 μM CaCl2, and 72 mM KCl. Na^+,K^+-ATPase buffer consisted of 30 mM MOPS-NaOH, pH 7, 40 mM NaCl, 4 mM MgCl2, and 20 mM KCl. The concentration of protein was adjusted to obtain a signal of the optical density at 860 nm (OD860) of between 0.5 and 1.0 in the untreated samples (for all Pma1 batches, ∼1 to 2 μg/well; for SERCA and Na^+,K^+-ATPase, ∼0.1 to 0.2 μg/well). […]

Assay [2] relates to Candida glabrata ATCC 90030. Nature of the assay: microbe, parasite or virus in culture. The following applies: for MIC: Nakaseomyces glabratus, ATCC90030, read-out: MIC for growth inhibition, C. glabrata. As for the experimental part: (§1) The following fungal isolates were used: Saccharomyces cerevisiae ATCC 9763, Candida albicans SC5314, Candida parapsilosis ATCC 22019, Candida tropicalis Ct016, Candida glabrata ATCC 90030, Aspergillus fumigatus ATCC 13073, and Aspergillus flavus ATCC MYA-1005. Frozen stocks of yeast isolates in glycerol (final concentration, 20%) were prepared by growing the cells to log phase in YPD medium at 30°C and 150 rpm. Frozen stocks of mold spores were prepared by harvesting spores from 7-day-old potato glucose agar plates in phosphate-buffered saline, 0.1% Tween 80 and aliquoting these spores in the presence of glycerol (final concentration, 20%). The cells were stored at −80°C. The cells or spores were thawed and diluted to a final concentration of 0.5 × 10^5 to 2.5 × 10^5 CFU/ml in sterile Milli-Q H2O. […] The plate was incubated for 20 to 24 h at 34°C (72 h for molds), and the OD490 was measured on a Victor X5 (PerkinElmer) plate reader. Mold growth assay plates were also visually inspected. The MIC was defined as the lowest concentration inhibiting the visual growth of the microorganism.

Assay [3] has as its system Candida albicans SC5314. The experiment in a line: microbe, parasite or virus in culture. The note with it: for MIC: Candida albicans. As for the experimental part: as §1
The test system of assay [4] is Candida parapsilosis ATCC 22019. The experiment in a line: microbe, parasite or virus in culture. The following applies: for MIC: Lodderomyces parapsilosis, ATCC22019, read-out: MIC for growth inhibition, C. parapsilosis. As for the experimental part:
as §1

Assay [5] deals with Aspergillus fumigatus ATCC 13073. Nature of the assay: microbe, parasite or virus in culture. The note with it: for MIC: Aspergillus fumigatus, ATCC13073, read-out: MIC for growth inhibition, A. fumigatus. On the procedure: as §1
Assay [6] deals with Candida tropicalis Ct016. Nature of the assay: microbe, parasite or virus in culture. The note with it: for MIC: Candida tropicalis, CT016, read-out: MIC for growth inhibition, C. tropicalis. As for the experimental part:
as §1

[7] abbreviates: Table 2, pH 7, n = 2, read-out: IC50 for ATP hydrolysis, S. cerevisiae Pma1.
The mark [8] stands for this setting: SC5314, read-out: Growth inhibition MIC, C. albicans in RPMI.
[9] abbreviates: SC5314, read-out: MIC for growth inhibition, C. albicans.

≈ marks a conversion by molar mass, not a printed value. Like-named read-outs stand apart in the source and are kept apart here.

Chain of S. cerevisiae Pma1 (P05030 whole entry, canonical isoform): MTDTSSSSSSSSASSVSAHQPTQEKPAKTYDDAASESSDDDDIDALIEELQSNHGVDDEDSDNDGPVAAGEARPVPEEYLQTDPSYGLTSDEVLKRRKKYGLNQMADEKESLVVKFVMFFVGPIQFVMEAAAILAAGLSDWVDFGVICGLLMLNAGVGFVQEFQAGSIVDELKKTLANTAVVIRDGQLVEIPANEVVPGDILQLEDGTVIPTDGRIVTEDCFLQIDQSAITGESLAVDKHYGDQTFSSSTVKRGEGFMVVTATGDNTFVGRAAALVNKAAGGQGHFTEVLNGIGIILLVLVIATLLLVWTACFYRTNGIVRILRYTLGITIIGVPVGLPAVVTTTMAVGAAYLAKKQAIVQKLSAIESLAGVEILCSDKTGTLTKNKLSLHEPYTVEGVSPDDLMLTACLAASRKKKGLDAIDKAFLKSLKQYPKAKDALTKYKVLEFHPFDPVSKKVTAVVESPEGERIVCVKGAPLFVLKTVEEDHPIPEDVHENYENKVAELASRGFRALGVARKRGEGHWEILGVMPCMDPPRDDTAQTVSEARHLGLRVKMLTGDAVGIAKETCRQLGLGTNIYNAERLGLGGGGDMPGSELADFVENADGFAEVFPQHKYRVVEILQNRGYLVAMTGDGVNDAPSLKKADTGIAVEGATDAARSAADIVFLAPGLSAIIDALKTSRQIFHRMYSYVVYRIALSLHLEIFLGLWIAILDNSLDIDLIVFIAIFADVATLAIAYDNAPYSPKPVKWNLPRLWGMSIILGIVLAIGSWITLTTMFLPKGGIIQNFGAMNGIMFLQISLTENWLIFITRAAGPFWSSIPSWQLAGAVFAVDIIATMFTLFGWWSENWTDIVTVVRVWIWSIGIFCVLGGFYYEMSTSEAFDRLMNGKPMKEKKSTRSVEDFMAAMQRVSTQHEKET

As for `CCc1nc2sc3c(NCCCN(C)C)ncnc3c2c2c1CCCC2` [Compound 17], the half-maximal inhibitory concentration (IC50) (as a rule, the concentration needed to halve the response being measured) amounted to 107 µM in assay [1] (ATP hydrolysis, S. cerevisiae Pma1, read-out: IC50 for Pma1) and 107 ± 18.2 µM in assay [1] (setting [7]). The MIC is 150 µM (≈ 55.4 µg/mL) in assay [2]; 150 µM (≈ 55.4 µg/mL) in assay [3] (setting [8]); 150 µM (≈ 55.4 µg/mL) in assay [3] (setting [9]); 150 µM (≈ 55.4 µg/mL) in assay [4]; > 150 µM in assay [5]; 150 µM (≈ 55.4 µg/mL) in assay [6].

Take `CN(C)CCCNc1ncnc2c1sc1nc(-c3ccccc3)c3c(c12)CCC3` [Compound 18]: the IC50 in assay [1] (setting [7]) turned out to be 18.5 ± 4.3 µM. The “Selectivity for Pma1 over Na^+,K^+-ATPase” value in assay [1] (from IC50 of Table 2) amounted to 4 fold. Besides, in assay [1] (from IC50 of Table 2), the “Selectivity for Pma1 over SERCA” value worked out at 3 fold. Also, the MIC turned out to be 41 µM (≈ 16.5 µg/mL) in assay [2]; 75 µM (≈ 30.3 µg/mL) in assay [3] (setting [8]); 75 µM (≈ 30.3 µg/mL) in assay [3] (setting [9]); 24 µM (≈ 9.69 µg/mL) in assay [4]; 75 µM (≈ 30.3 µg/mL) in assay [5]; 58 µM (≈ 23.4 µg/mL) in assay [6].

In the case of `CCN(CC)CCCNc1nc(SC)nc2c1sc1nc(-c3ccccc3)c3c(c12)CCC3` [Compound 19], in assay [1] (setting [7]), the IC50 is 7.3 ± 1 µM. The “Selectivity toward Pma1 than toward SERCA or Na^+,K^+-ATPase” value in assay [1] (from IC50 of Table 2) is “no selectivity”. Besides, the MIC turned out to be 3.7 µM (≈ 1.77 µg/mL) in assay [2]; 7 µM (≈ 3.34 µg/mL) in assay [3] (setting [8]); 6 µM (≈ 2.87 µg/mL) in assay [3] (setting [9]); 3.7 µM (≈ 1.77 µg/mL) in assay [4]; 12 µM (≈ 5.73 µg/mL) in assay [5]; 3.7 µM (≈ 1.77 µg/mL) in assay [6].

Turning to `[O]=[V]([O-])([O-])[O-]` [Vanadate, reference compound], in assay [1] (setting [7]), the concentration for half-maximal inhibition (IC50) came out at 0.25 ± 0.01 µM. Moreover, the “MIC for growth inhibition, C. glabrata” value in assay [2] (Table 3) is >750 µM. Besides, the “MIC for growth inhibition, C. albicans” value in assay [3] (Table 3) was >750 µM. Besides, in assay [4] (Table 3), the “MIC for growth inhibition, C. parapsilosis” value is >750 µM. Further, the “MIC for growth inhibition, A. fumigatus” value in assay [5] (Table 3) is >750 µM. For the same molecule, the “MIC for growth inhibition, C. tropicalis” value in assay [6] (Table 3) was >750 µM.
